Data on eleven compounds can be found in US20240390298A1, “CYCLOHEXYL BETA-HYDROXY ALKYL AMINES AND MEDICAL USES THEREOF” (ATROGI AB, priority 2021, published 2024).

The test system of test [1] is L6-myotubes. Briefly: Glucose uptake in differentiated L6-myotubes (3H-2-deoxyglucose), compared to isoproterenol. The test is classed as cell-based. Particulars: agonist 1×10^−5 M, 50 nM 3H-2-deoxyglucose; for Emax at 10 µM: read-out: Biological example 1: glucose uptake, activity compared to that of isoproterenol. In a few lines:
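Serum-starved differentiated L6 myotubes stimulated with agonist at 1×10^−5 M for 1 h 40 min, re-dosed in glucose-free medium for 20 min, then given 50 nM ^3H-2-deoxyglucose for 10 min. Uptake read by β-counting of NaOH lysates; activity expressed relative to isoproterenol.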

The test system of test [2] is L6-myotubes. Briefly: Measurement of intracellular cAMP levels in differentiated L6 cells (alpha screen cAMP kit), compared to isoproterenol. The test is classed as cell-based. Particulars: Rattus norvegicus, L6, 0.25 h, agonist 1×10^−5 M, 15 min, read-out: Biological example 2: intracellular cAMP levels, activity compared to that of isoproterenol. The procedure, abridged: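 L6 myoblasts were differentiated into myotubes over 7 days in 2% FBS, then serum-starved overnight. Agonist at 1×10^−5 M final was applied for 15 min in HBSS with 1% BSA, 5 mM HEPES and 1 mM IBMX, pH 7.4. After ethanol extraction and lysis, cAMP was quantified by AlphaScreen, with activity expressed relative to isoproterenol.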
Background: Changes in cAMP serve as a functional read-out for many G protein-coupled receptors.

A value given as a limit tells only on which side of the number the result lay.

For the compound `CC(C)(C[C@H]1CC[C@H](C(=O)O)CC1)NC[C@H](O)c1cncc(F)c1` [Example 110, (1R,4r)-4-(2-(((R)-2-(5-fluoropyridin-3-yl)-2-hydroxyethyl)amino)-2-methylpropyl)cyclohexane-1-carboxylic acid acetate], the Emax at 10 µM in the test with L6-myotubes [1] and in the test on L6-myotubes [2] was less than 25% in each case.

For the compound `COC(=O)[C@H]1CC[C@@H](CCC(C)(C)NC[C@H](O)c2cccc(F)c2)CC1` [Example 111, Methyl (1S,4s)-4-(3-(((R)-2-(3-fluorophenyl)-2-hydroxyethyl)amino)-3-methylbutyl)cyclohexane-1-carboxylate], the “Biological example 1: glucose uptake, activity compared to that of isoproterenol” value with L6-myotubes [1] is “+ + +”. Also, in the test on L6-myotubes [2], the Emax at 10 µM lay within 25 to 50%.

With `CC(C)(CC[C@H]1CC[C@@H](C(=O)O)CC1)NC[C@H](O)c1cccc(F)c1` [Example 113, (1S,4s)-4-(3-(((R)-2-(3-Fluorophenyl)-2-hydroxyethyl)amino)-3-methyl-butyl)cyclohexane-1-carboxylic acid], the Emax at 10 µM in the test with L6-myotubes [1] is 25 to 50%; with L6-myotubes [2] it was less than 25%.

Take `CC(C)(CC[C@H]1CC[C@@H](C(=O)O)CC1)NC[C@H](O)c1cncc(F)c1` [Example 114, (1S,4s)-4-(3-(((R)-2-(5-Fluoropyridin-3-yl)-2-hydroxyethyl)amino)-3-methylbutyl)cyclohexane-1-carboxylic acid]: in the test with L6-myotubes [1], the “Biological example 1: glucose uptake, activity compared to that of isoproterenol” value was “+ + +”. In addition, the Emax at 10 µM in the test on L6-myotubes [2] was less than 25%.

For the compound `COC(=O)[C@H]1CC[C@H](CCC(C)(C)NC[C@H](O)c2cccc(F)c2)CC1` [Example 115, Methyl (1R,4r)-4-(3-(((R)-2-(3-fluorophenyl)-2-hydroxyethyl)amino)-3-methylbutyl)cyclohexane-1-carboxylate], the “Biological example 1: glucose uptake, activity compared to that of isoproterenol” value with L6-myotubes [1] is recorded as “+ + +”. Further, the Emax at 10 µM with L6-myotubes [2] was less than 25%.

For `CC(C)(CC[C@H]1CC[C@H](C(=O)O)CC1)NC[C@H](O)c1cccc(F)c1` [Example 117, (1R,4r)-4-(3-(((R)-2-(3-Fluorophenyl)-2-hydroxyethyl)amino)-3-methyl-butyl)cyclohexane-1-carboxylic acid], the Emax at 10 µM in the test on L6-myotubes [1] and with L6-myotubes [2] was less than 25% throughout.

With `CC(C)(CC[C@H]1CC[C@H](C(=O)O)CC1)NC[C@H](O)c1cncc(F)c1` [Example 118, (1R,4r)-4-(3-(((R)-2-(5-Fluoropyridin-3-yl)-2-hydroxyethyl)amino)-3-methylbutyl)cyclohexane-1-carboxylic acid], the Emax at 10 µM in the test on L6-myotubes [1] was 25 to 50%; in the test on L6-myotubes [2] it was less than 25%.

Consider `CCOC(=O)CO[C@H]1CC[C@H](C(C)(C)NC[C@H](O)c2cccc(F)c2)CC1` [Example 123, Ethyl 2-(((1R,4r)-4-(2-(((R)-2-(3-fluorophenyl)-2-hydroxyethyl)amino)-propan-2-yl)cyclohexyl)oxy)acetate], for which the “Biological example 1: glucose uptake, activity compared to that of isoproterenol” value with L6-myotubes [1] is “+ + +”. Also, in the test on L6-myotubes [2], the Emax at 10 µM is less than 25%.

With `CCOC(=O)CO[C@H]1CC[C@@H](C(C)(C)NC[C@H](O)c2cccc(F)c2)CC1` [Example 124, Ethyl 2-(((1S,4s)-4-(2-(((R)-2-(3-fluorophenyl)-2-hydroxyethyl)amino-)propan-2-yl)cyclohexyl)oxy)acetate], the “Biological example 1: glucose uptake, activity compared to that of isoproterenol” value in the test on L6-myotubes [1] is recorded as “+ +”. The Emax at 10 µM with L6-myotubes [2] was less than 25%.

Regarding `CCOC(=O)CO[C@H]1CC[C@H](C(C)(C)NC[C@H](O)c2cncc(F)c2)CC1` [Example 125, Ethyl 2-(((1R,4r)-4-(2-(((R)-2-(5-fluoropyridin-3-yl)-2-hydroxyethyl)-amino)propan-2-yl)cyclohexyl)oxy)acetate], the “Biological example 1: glucose uptake, activity compared to that of isoproterenol” value with L6-myotubes [1] is “+ + +”. Further, the Emax at 10 µM in the test with L6-myotubes [2] is less than 25%.

With `CC(C)(NC[C@H](O)c1cccc(F)c1)[C@H]1CC[C@H](OCC(=O)O)CC1` [Example 126, 2-(((1R,4r)-4-(2-(((R)-2-(3-Fluorophenyl)-2-hydroxyethyl)amino)propan-2-yl)cyclohexyl)oxy)acetic acid], in the test with L6-myotubes [1], the “Biological example 1: glucose uptake, activity compared to that of isoproterenol” value is “+ +”. The Emax at 10 µM in the test with L6-myotubes [2] is less than 25%.
